In article PMC5762309 (Oncotarget, 2017):
Values joined by “and” are separate entries in the source; they are usually repeats but may differ in a detail not shown here. Equal values may be shown once.

Experiments:
[1] = target: KIT V559D (Homo sapiens, UniProt P10721, V559D); assay: ADP-Glo biochemical assay; set-up: Kit V559D encoding residues 545-976 with His tag; His tag; made in house; host or cells: SF9 insect cells (baculovirus)
[2] = target: T1, ULK1 (Homo sapiens, UniProt O75385); assay: KINOMEScan; format: binding; set-up: dose or concentration left out as unconfirmed
T1 construct: purchased DiscoverX KINOMEscan

[3] = target: T2, BMPR2 (Homo sapiens, UniProt Q13873); assay: KINOMEScan; format: binding; set-up: dose or concentration left out as unconfirmed
T2 construct: purchased DiscoverX KINOMEscan

[4] = target: T3, MST1 (Homo sapiens, UniProt Q13043); assay: KINOMEScan; format: binding; set-up: dose or concentration left out as unconfirmed
T3 construct: purchased DiscoverX KINOMEscan

[5] = target: T4, TYK2(JH1domain-catalytic) (Homo sapiens, UniProt P29597); assay: KINOMEScan; format: binding; set-up: dose or concentration left out as unconfirmed
T4 construct: TYK2(JH1domain-catalytic); purchased DiscoverX KINOMEscan

[6] = target: T5, CSNK1G2 (Homo sapiens, UniProt P78368); assay: KINOMEScan; format: binding; set-up: dose or concentration left out as unconfirmed
T5 construct: purchased DiscoverX KINOMEscan
T5 sequence (P78368 whole entry): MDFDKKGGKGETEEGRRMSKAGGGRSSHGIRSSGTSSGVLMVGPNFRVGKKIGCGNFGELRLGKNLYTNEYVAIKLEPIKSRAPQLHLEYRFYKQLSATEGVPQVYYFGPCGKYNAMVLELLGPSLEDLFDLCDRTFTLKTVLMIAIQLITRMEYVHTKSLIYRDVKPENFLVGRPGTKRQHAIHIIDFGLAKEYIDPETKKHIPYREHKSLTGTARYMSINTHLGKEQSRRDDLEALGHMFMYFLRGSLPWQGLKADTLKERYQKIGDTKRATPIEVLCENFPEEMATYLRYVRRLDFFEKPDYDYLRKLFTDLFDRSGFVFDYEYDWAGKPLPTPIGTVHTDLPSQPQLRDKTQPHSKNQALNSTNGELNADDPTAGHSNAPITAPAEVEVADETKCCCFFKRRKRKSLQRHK

[7] = target: T6, CSK (Homo sapiens, UniProt P41240); assay: KINOMEScan; format: binding; set-up: dose or concentration left out as unconfirmed
T6 construct: purchased DiscoverX KINOMEscan

[8] = target: T7, PIP5K1C (Homo sapiens, UniProt O60331); assay: KINOMEScan; format: binding; set-up: dose or concentration left out as unconfirmed
T7 construct: purchased DiscoverX KINOMEscan

[9] = target: T8, CSNK1G3 (Homo sapiens, UniProt Q9Y6M4); assay: KINOMEScan; format: binding; set-up: dose or concentration left out as unconfirmed
T8 construct: purchased DiscoverX KINOMEscan
T8 sequence (Q9Y6M4 whole entry): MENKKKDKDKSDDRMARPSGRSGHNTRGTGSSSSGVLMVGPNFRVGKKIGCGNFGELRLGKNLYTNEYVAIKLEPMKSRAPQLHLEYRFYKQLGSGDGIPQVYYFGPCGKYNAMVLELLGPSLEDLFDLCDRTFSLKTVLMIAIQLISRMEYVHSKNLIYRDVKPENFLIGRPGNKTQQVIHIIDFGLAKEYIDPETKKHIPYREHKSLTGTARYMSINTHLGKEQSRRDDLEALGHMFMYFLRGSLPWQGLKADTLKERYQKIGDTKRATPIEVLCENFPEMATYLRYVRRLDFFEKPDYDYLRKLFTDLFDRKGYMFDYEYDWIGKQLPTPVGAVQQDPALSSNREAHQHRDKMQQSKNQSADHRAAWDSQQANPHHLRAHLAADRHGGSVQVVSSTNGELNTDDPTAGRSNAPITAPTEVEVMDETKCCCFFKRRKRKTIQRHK

[10] = target: T9, EGFR(L858R) (Homo sapiens, UniProt P00533, L858R); assay: KINOMEScan; format: binding; set-up: dose or concentration left out as unconfirmed
T9 construct: purchased DiscoverX KINOMEscan

[11] = target: T10, EGFR(T790M) (Homo sapiens, UniProt P00533, T790M); assay: KINOMEScan; format: binding
T10 construct: purchased DiscoverX KINOMEscan

[12] = test system: FLT3(ITD,D835V); assay: KINOMEScan; format: binding; set-up: dose or concentration left out as unconfirmed
[13] = target: T11, EGFR(L747-S752del, P753S) (Homo sapiens, UniProt P00533, DEL747-752/P753S); assay: KINOMEScan; format: binding; set-up: dose or concentration left out as unconfirmed
T11 construct: purchased DiscoverX KINOMEscan
T11 sequence (P00533 with tags, fused parts or gaps DEL747-752/P753S limits assumed): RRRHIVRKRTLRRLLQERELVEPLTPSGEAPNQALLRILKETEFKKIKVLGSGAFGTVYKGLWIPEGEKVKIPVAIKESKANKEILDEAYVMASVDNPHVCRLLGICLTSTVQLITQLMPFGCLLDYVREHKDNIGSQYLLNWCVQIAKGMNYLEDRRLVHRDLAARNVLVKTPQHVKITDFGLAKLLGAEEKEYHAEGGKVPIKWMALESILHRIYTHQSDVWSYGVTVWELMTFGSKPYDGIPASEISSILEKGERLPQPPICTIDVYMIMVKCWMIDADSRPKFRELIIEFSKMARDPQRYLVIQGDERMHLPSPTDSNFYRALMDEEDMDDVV

[14] = target: T12, CIT (Homo sapiens, UniProt O14578); assay: KINOMEScan; format: binding; set-up: dose or concentration left out as unconfirmed
T12 construct: purchased DiscoverX KINOMEscan
T12 sequence (O14578 whole entry): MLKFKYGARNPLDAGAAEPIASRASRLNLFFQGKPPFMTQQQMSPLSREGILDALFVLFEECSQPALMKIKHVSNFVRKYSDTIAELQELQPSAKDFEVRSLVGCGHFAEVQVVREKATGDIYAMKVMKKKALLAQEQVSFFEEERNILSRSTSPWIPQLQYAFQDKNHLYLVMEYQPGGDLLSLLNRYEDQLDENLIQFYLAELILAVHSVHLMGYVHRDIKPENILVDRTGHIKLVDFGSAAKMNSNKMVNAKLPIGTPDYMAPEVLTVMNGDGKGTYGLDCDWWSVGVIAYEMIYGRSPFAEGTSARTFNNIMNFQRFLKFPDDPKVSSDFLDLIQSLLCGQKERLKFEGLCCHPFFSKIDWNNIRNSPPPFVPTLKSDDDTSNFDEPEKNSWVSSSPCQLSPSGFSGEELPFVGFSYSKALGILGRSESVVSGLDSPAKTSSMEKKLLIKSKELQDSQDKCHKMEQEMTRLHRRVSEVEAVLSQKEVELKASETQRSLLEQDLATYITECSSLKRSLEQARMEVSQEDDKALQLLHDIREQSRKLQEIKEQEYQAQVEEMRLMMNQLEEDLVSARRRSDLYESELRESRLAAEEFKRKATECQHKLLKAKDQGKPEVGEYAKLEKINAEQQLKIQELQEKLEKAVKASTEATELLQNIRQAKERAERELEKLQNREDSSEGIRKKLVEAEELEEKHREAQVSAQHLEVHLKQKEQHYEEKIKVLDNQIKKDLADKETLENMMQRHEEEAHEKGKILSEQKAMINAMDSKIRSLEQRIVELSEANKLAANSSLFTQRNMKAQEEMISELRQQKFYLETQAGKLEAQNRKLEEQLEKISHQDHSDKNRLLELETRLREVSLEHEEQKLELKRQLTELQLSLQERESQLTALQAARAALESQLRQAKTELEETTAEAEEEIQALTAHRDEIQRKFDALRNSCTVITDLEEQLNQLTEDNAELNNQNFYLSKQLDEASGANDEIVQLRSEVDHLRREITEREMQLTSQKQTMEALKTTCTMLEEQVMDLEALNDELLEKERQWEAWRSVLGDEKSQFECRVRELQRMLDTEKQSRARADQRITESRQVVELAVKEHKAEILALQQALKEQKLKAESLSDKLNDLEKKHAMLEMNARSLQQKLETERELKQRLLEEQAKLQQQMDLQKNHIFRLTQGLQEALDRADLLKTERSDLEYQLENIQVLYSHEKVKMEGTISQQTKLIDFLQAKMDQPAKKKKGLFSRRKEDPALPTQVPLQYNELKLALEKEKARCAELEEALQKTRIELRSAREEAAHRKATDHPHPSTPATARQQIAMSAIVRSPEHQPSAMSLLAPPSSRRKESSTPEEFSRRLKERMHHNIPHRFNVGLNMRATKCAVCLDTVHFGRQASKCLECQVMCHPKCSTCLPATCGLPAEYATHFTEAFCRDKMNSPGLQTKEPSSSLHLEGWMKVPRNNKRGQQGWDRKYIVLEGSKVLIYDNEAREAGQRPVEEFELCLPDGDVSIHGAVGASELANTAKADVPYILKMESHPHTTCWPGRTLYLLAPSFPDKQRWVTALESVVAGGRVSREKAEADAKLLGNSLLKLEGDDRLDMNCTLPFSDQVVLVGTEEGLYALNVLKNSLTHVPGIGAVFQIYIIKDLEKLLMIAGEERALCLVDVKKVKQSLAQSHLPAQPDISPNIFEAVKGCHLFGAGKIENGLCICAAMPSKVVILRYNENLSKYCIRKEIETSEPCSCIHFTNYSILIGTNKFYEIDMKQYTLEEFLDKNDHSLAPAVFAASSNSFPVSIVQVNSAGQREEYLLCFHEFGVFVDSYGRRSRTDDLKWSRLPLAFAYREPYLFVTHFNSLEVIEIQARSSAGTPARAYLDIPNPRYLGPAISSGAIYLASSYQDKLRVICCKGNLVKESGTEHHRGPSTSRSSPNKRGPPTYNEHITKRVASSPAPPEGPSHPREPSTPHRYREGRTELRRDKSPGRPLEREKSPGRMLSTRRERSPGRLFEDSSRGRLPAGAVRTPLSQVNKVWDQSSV

[15] = target: T13, MLK3 (Homo sapiens, UniProt Q16584); assay: KINOMEScan; format: binding; set-up: dose or concentration left out as unconfirmed
T13 construct: purchased DiscoverX KINOMEscan

[16] = target: T14, MET (Homo sapiens, UniProt P08581); assay: KINOMEScan; format: binding; set-up: dose or concentration left out as unconfirmed
T14 construct: purchased DiscoverX KINOMEscan
T14 sequence (P08581 25-1390): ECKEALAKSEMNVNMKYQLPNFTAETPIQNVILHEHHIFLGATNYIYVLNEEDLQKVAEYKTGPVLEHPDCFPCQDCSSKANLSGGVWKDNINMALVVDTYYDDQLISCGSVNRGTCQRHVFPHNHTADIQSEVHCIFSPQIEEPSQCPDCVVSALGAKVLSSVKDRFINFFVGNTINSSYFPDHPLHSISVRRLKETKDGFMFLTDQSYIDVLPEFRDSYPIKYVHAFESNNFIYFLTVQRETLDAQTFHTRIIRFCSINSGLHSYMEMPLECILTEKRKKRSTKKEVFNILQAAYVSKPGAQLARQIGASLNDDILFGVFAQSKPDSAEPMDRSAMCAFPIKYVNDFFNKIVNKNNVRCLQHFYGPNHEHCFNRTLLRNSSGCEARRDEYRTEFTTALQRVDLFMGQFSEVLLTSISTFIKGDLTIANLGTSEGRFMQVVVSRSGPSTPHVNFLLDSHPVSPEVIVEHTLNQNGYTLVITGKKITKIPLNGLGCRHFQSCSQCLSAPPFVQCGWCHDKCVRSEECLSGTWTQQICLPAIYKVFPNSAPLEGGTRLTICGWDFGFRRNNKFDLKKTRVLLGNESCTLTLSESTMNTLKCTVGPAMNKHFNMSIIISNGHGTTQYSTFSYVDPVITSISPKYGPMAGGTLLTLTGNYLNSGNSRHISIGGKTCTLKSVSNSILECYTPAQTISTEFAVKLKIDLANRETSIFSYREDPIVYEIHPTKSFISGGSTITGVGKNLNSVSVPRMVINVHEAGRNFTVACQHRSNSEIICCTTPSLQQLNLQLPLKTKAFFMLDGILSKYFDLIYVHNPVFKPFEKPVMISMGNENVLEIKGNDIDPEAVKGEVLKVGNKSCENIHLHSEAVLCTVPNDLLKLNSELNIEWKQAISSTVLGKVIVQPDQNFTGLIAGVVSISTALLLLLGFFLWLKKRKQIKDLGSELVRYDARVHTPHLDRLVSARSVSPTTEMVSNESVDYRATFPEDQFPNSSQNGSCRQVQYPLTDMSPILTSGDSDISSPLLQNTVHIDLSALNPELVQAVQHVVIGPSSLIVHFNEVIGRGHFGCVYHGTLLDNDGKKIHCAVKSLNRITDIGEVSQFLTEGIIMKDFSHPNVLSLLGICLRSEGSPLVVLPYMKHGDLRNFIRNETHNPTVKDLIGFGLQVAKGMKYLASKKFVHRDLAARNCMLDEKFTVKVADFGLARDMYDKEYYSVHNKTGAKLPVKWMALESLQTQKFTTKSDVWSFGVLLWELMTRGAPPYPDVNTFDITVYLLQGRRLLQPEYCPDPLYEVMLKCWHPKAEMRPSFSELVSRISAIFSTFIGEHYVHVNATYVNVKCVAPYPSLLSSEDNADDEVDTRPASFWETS

[17] = test system: BaF3-tel-KIT-V654A; assay: Anti-proliferation assay, transformed BaF3 cells; format: cell-based; details: Mus musculus, 72 hours, CellTiter-Glo
From the text: (§1) Retroviral constructs for BaF3-KIT mutants were made based on the pMSCVpuro (Clontech) backbone. For TEL-KIT vector, the first 1 kb of human TEL gene with an artificial myristoylation sequence ([…]) was cloned into the pMSCVpuro retroviral vector, followed by a 3xFLAG tag sequence. Then, the kinase domain coding sequence of KIT was inserted in-frame between TEL and 3xFLAG sequences. For full-length expression vectors, the coding sequences of KIT variants were directly cloned in pMSCVpuro vector with a 3xFLAG tag at the C-terminal end. All mutagenesis was performed using the QuikChange Site-Directed Mutagenesis Kit (Stratagene) following the manufacturer’s instructions. Retrovirus was packaged in HEK293T cells by transfecting KIT-containing MSCV vectors together with two helper plasmids. Virus supernatants were harvested 48 h after transfection and filtered before infection. Then BaF3 cells were infected with harvested virus supernatants using spinoculation protocol, and stable cell lines were obtained by puromycin selection for 48 h. The IL-3 concentrations in the culture medium were gradually withdrawn until cells were able to grow in the absence of IL-3.
(§2) Cells were grown in 96-well culture plates (2500/well). The compounds of various concentrations were added into the plates. Cell proliferation was determined after treatment with compounds for 72 hours. Cell viability was measured using the CellTiter–Glo assay (Promega, USA), according to the manufacturer’s instructions, and luminescence was measured in a multi-label reader (Envision, PerkinElmer, USA). Data were normalized to control groups (DMSO) and represented by the mean of three independent measurements with standard error <20%. GI50 values were calculated using Prism 5.0 (GraphPad Software, San Diego, CA).

[18] = test system: BaF3-tel-KIT; assay: Anti-proliferation assay, transformed BaF3 cells; format: cell-based; details: Mus musculus, 72 hours, CellTiter-Glo
From the text: as §1, §2

[19] = test system: BaF3-tel-KIT-D816V; assay: Anti-proliferation assay, transformed BaF3 cells; format: cell-based; details: Mus musculus, 72 hours, CellTiter-Glo
From the text: as §1, §2

[20] = test system: BaF3-tel-KIT-T670I; assay: Anti-proliferation assay, transformed BaF3 cells; format: cell-based; details: Mus musculus, 72 hours, CellTiter-Glo
From the text: as §1, §2

[21] = test system: BaF3-tel-KIT-L576P; assay: Anti-proliferation assay, transformed BaF3 cells; format: cell-based; details: Mus musculus, 72 hours, CellTiter-Glo
From the text: as §1, §2

[22] = test system: BaF3-tel-KIT-T670I-V559D; assay: Anti-proliferation assay, transformed BaF3 cells; format: cell-based; details: Mus musculus, 72 hours, CellTiter-Glo
From the text: as §1, §2

[23] = test system: BaF3-tel-KIT-N822K; assay: Anti-proliferation assay, transformed BaF3 cells; format: cell-based; details: Mus musculus, 72 hours, CellTiter-Glo
From the text: as §1, §2

[24] = test system: BaF3-tel-KIT-A829P; assay: Anti-proliferation assay, transformed BaF3 cells; format: cell-based; details: Mus musculus, 72 hours, CellTiter-Glo
From the text: as §1, §2

[25] = test system: BaF3-tel-KIT-V559D-V654A; assay: Anti-proliferation assay, transformed BaF3 cells; format: cell-based; details: Mus musculus, 72 hours, CellTiter-Glo
From the text: as §1, §2

[26] = test system: BaF3-tel-KIT-V559D; assay: Anti-proliferation assay, transformed BaF3 cells; format: cell-based; details: Mus musculus, 72 hours, CellTiter-Glo
From the text: as §1, §2

[27] = target: T15, MST3 (Homo sapiens, UniProt Q9Y6E0); assay: KINOMEScan; format: binding; set-up: dose or concentration left out as unconfirmed
T15 construct: purchased DiscoverX KINOMEscan

[28] = test system: BaF3-TEL-KIT-V559D tumors; assay: BaF3-TEL-KIT-V559D allograft model

Chain of KIT V559D (P10721 545-976 V559D): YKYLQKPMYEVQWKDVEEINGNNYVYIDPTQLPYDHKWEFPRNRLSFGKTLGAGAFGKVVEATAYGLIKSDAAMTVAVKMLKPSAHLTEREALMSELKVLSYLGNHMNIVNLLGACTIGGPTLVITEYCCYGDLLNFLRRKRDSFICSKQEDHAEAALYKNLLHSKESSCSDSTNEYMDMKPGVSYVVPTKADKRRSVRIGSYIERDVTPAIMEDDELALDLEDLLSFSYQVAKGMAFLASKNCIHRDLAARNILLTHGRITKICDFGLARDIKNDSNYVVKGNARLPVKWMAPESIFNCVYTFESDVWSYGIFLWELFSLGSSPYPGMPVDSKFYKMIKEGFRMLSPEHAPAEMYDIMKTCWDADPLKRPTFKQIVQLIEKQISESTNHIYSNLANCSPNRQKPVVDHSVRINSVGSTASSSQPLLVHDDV

`COc1cc(C(=O)NCC(=O)Nc2ccc3c(/C=C/c4ccccn4)n[nH]c3c2)cc(OC)c1OC` [CHMFL-KIT-031] was tested, and the “selectivity over KIT wt (IC50)” value ([1]; ADP-Glo, KIT V559D vs KIT wt) was “about 6 fold”, the IC50 ([1]; purified kinase protein, ADP-Glo, 100 μM ATP) was 28.2 nM and 28 nM and the “selectivity over KIT wt” value ([1]; summary statement) was 10 fold. It also gave a KINOMEScan profiling value [2] of 92, a KINOMEScan profiling value [3] of 100 and a KINOMEScan profiling value [4] of 89. For the same compound, the KINOMEScan profiling value [5] was 100, the KINOMEScan profiling value [6] was 100 and the KINOMEScan profiling value [7] was 87. It also gave a KINOMEScan profiling value [8] of 71, a KINOMEScan profiling value [9] of 99 and a KINOMEScan profiling value [10] of 100. The KINOMEScan profiling value [11] was 100, the KINOMEScan profiling value [12] was 73 and the KINOMEScan profiling value [13] was 100. For the same compound, the KINOMEScan profiling value [14] was 64, the KINOMEScan profiling value [15] was 100 and the KINOMEScan profiling value [16] was 100. The GI50 [17] was 400 nM, the GI50 [18] was over 10000 nM and the GI50 [19] was over 10000 nM. It also gave a GI50 [20] of over 10000 nM, a GI50 [21] of 2200 nM and a GI50 [22] of over 10000 nM. For the same compound, the GI50 [23] was over 10000 nM, the GI50 [24] was 1800 nM and the GI50 [25] was 810 nM. The GI50 [26] was 25 nM, the KINOMEScan profiling value [27] was 86 and the TGI ([28]; 100mg/kg/d IP, 10 days) was 68.5%. The “KIT, AKT, S6 and STAT3 phosphorylation in tumor tissue” value ([28]; starting from 50 mg/kg, Western blot after 10-day treatment) was “significantly affect”.
